Results published in patent publication US6444663B1, “Tricyclic compounds for the inhibition of the ICE/ced-3 protease family of enzymes” (Idun Pharmaceuticals, Inc., priority 1996, dated 2002).

How the values were obtained:
MCH-3 = molecular target: T1, MCH-3 (Homo sapiens, UniProt P55210); assay: Fluorescence enzyme assay, IC50 determination, Mch3; type: biochemical; conditions: substrate Acetyl-Asp-Glu-Val-Asp-AMC, 30 min preincubation, room temperature
T1 sequence (P55210 24-198 limits assumed): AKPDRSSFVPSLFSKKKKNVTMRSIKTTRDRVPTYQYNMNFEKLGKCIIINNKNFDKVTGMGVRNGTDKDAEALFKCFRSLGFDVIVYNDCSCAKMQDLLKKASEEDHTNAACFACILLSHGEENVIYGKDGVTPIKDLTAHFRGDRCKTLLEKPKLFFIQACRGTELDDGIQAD
T1 sequence (P55210 207-303 limits assumed): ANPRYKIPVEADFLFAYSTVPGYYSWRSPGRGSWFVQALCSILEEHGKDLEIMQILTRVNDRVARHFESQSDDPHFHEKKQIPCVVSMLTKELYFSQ
Experimental: (§1) Fluorescence enzyme assays detecting the activity of the compounds of Formula 1 utilizing the recombinant ICE and CPP32 enzymes were performed essentially according to Thornberry et al. (Nature, 356:768:774 (1992)) and Nicholson et al. (Nature, 376:37-43 (1995)) respectively, (herein incorporated by reference) in 96 well microtiter plates. The substrate is Acetyl-Tyr-Val-Ala-Asp-amino-4-methylcoumarin (AMC) for the ICE assay and Acetyl-Asp-Glu-Val-Asp-amino-4-methylcoumarin for the CPP32, Mch2, Mch3 and Mch5 assays. Enzyme reactions were run in ICE buffer (25 mM HEPES, 1 mM EDTA, 0.1% CHAPS, 10% sucrose, pH 7.5) containing 2 mM DTT at room temperature in duplicate. The assays were performed by mixing the following components:
(§2) 50 μL ICE, Mch2, Mch5, CPP32 (18.8, 38, 8.1 and 0.153 nM concentrations, respectively) or Mch3 (1 unit) enzyme in ICE buffer containing either 8.0 (ICE, Mch2, Mch3, CPP32) or 20 (Mch5) mM DTT;
(§3) 50 μL compound of Formula 1 or ICE buffer (control); and
(§4) 100 μL of 20 μM substrate.
(§5) The enzyme and the compound of Formula 1 to be assayed were allowed to preincubate in the microtitre plate wells for 30 minutes at room temperature prior to the addition of substrate to initiate the reaction. Fluorescent AMC product formation was monitored for one hour at room temperature by measuring the fluorescence emission at 460 nm using an excitation wavelength of 360 nm. The fluorescence change in duplicate (control) wells were averaged and the mean values were plotted as a function of inhibitor concentration to determine the inhibitor concentration producing 50% inhibition (IC50).
(§6) The reference compound for this assay was Cbz-ValAlaAsp-H and the values are denoted in Table 1 as “Reference”.

MCH-5 [1] = molecular target: T2, MCH-5 (Homo sapiens, UniProt Q14790); assay: Fluorescence enzyme assay, IC50 determination, Mch5; type: biochemical; conditions: substrate Acetyl-Asp-Glu-Val-Asp-AMC, 30 min preincubation, room temperature
Experimental: as §1, §2, §3, §4, §5, §6

mICE [2] = molecular target: T3, mICE (Mus musculus, UniProt P29452); assay: Fluorescence enzyme assay, IC50 determination, ICE; type: biochemical; conditions: recombinant enzyme, substrate Acetyl-Tyr-Val-Ala-Asp-AMC, 30 min preincubation, room temperature
T3 sequence (P29452 123-296 limits assumed): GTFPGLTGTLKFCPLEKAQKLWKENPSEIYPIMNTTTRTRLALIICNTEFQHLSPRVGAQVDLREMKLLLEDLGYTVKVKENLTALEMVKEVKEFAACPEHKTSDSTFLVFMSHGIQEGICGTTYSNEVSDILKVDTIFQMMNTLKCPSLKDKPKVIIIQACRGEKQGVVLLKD
T3 sequence (P29452 315-402 limits assumed): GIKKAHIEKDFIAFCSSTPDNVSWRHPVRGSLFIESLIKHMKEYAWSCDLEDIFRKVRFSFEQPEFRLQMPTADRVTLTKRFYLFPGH
Experimental: as §1, §2, §3, §4, §5, §6

CPP32 [3] = molecular target: T4, CPP32 (Homo sapiens, UniProt P42574); assay: Fluorescence enzyme assay, IC50 determination, CPP32; type: biochemical; conditions: recombinant enzyme, substrate Acetyl-Asp-Glu-Val-Asp-AMC, 30 min preincubation, room temperature
T4 sequence (P42574 29-175 limits assumed): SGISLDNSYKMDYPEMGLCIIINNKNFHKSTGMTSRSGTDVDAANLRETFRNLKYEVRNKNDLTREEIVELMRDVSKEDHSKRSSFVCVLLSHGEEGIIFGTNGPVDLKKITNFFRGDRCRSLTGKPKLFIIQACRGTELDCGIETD
T4 sequence (P42574 176-277 limits assumed): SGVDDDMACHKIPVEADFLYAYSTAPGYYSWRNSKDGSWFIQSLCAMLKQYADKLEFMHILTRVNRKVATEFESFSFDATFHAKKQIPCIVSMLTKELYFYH
Experimental: as §1, §2, §3, §4, §5, §6

MCH-2 [4] = molecular target: T5, MCH-2 (Homo sapiens, UniProt P55212); assay: Fluorescence enzyme assay, IC50 determination, Mch2; type: biochemical; conditions: substrate Acetyl-Asp-Glu-Val-Asp-AMC, 30 min preincubation, room temperature
T5 sequence (P55212 24-179 limits assumed): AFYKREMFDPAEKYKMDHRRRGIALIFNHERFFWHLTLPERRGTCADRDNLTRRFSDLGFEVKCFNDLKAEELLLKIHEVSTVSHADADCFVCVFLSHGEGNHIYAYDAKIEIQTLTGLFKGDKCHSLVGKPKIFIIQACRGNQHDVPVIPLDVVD
T5 sequence (P55212 194-293 limits assumed): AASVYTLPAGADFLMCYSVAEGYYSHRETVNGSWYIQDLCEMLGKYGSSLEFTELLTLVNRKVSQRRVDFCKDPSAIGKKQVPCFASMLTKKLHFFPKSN
Experimental: as §1, §2, §3, §4, §5, §6

MCH-5 [5] = molecular target: T2, MCH-5; assay: Continuous assay for Ki and k3 of irreversible inhibitors, Mch5; type: biochemical
Description: (§7) B. Determination of the dissociation constant Ki and irreversible rate constant k3 for irreversible inhibitors
(§8) For the irreversible inhibition of a ICE/ced-3 Family Protease enzyme with a competitive irreversible inhibitor; using the model represented by the following formulas: [drawing 14]
(§9) The product formation at time t may be expressed as: [formula]
(§10) where E, I, EI and E-I denote the active enzyme, inhibitor, non-covalent enzyme-inhibitor complex and covalent enzyme-inhibitor adduct, respectively. The Ki value is the overall dissociation constant of the reversible binding steps, and k3 is the irreversible rate constant. The [S] and Ks values are the substate concentration and dissociation constant of the substrate bound to the enzyme, respectively. [E]^T is the total enzyme concentration.
(§11) The above equations were used to determine the Ki and k3 values of a given inhibitor bound to a ICE/ced-3 family protease. Thus, a continuous assay was run for sixty minutes at various concentrations of the inhibitor and the substrate. The assay was formulated essentially the same as described above for generating the data in Table 1, except that the reaction was initiated by adding the enzyme to the substrate-inhibitor mixture. […]

MCH-2 [6] = molecular target: T5, MCH-2; assay: Continuous assay for Ki and k3 of irreversible inhibitors, Mch2; type: biochemical
Description: as §7, §8, §9, §10, §11

CPP32 [7] = molecular target: T4, CPP32; assay: Continuous assay for Ki and k3 of irreversible inhibitors, CPP32; type: biochemical
Description: as §7, §8, §9, §10, §11

mICE [8] = molecular target: T3, mICE; assay: Continuous assay for Ki and k3 of irreversible inhibitors, ICE; type: biochemical
Description: as §7, §8, §9, §10, §11

[9] = continuous assay 60 min, reaction initiated by adding enzyme

T2 sequence (Q14790 217-374 limits assumed, species assumed): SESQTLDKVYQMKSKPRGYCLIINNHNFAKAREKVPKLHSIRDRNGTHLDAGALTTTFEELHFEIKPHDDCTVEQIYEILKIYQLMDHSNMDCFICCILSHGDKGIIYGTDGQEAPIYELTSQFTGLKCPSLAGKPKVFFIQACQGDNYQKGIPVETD
T2 sequence (Q14790 385-479 limits assumed, species assumed): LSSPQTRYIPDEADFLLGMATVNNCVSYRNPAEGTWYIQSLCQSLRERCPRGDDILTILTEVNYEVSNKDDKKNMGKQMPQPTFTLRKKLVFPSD

SMILES | IC50 (MCH-3) [µM] | IC50 (MCH-5 [1]) [µM] | IC50 (mICE [2]) [µM] | melting point | IC50 (CPP32 [3]) [µM] | IC50 (MCH-2 [4]) [µM] | k3/Ki (MCH-5 [5]; Example 31) [M⁻¹ s⁻¹] | Ki (MCH-5 [5]; [9]) [µM] | k3/Ki (MCH-2 [6]; Example 31) [M⁻¹ s⁻¹] | Ki (MCH-2 [6]; [9]) [µM] | k3/Ki (CPP32 [7]; Example 31) [M⁻¹ s⁻¹] | Ki (CPP32 [7]; [9]) [µM] | k3/Ki (mICE [8]; Example 31) [M⁻¹ s⁻¹] | Ki (mICE [8]; [9]) [µM]
O=C1CC(NC(=O)C2CCc3cccc4c3N2C(=O)C(NC(=O)OCc2ccccc2)CC4)C(O)O1 (mixture of isomers) [Example 28, (3R,S-cis)-6-Benzyloxycarbonylamino-5-oxo-2,3,4,5,6,7,8-hexahydro-1H-azepino[3,2,1-hi]quinoline-3-carbonyl)-amino]-4-oxo-butanoic acid] | 1.11 | 2.06 | 0.026 | 120 to 123 °C (dec.) | 0.437 | 32 |  |  |  |  |  |  |  | 
O=C1C[C@H](NC(=O)[C@@H]2Cc3cccc4c3N2C(=O)[C@@H](NC(=O)OCc2ccccc2)CC4)C(O)O1 (stereo partly drawn) [Example 3] | 6.96 | > 10 | 0.019 | 101 to 104 °C | 1.03 | 40.1 |  |  |  |  |  |  |  | 
CC(=O)N[C@@H](CC(=O)O)C(=O)N[C@H]1CCc2cccc3c2N(C1=O)[C@H](C(=O)N[C@H]1CC(=O)OC1O)C3 (stereo partly drawn) [Example 7] | 0.145 | 2.09 | 0.694 | 160 to 175 °C (dec.) | 0.0014 | 6.47 |  |  |  |  |  |  |  | 
O=C(O)CCC(=O)N[C@H]1CCc2cccc3c2N(C1=O)[C@H](C(=O)N[C@H]1CC(=O)OC1O)C3 (stereo partly drawn) [Example 10] | 2.83 | 7.98 | 0.571 | 145 to 160 °C (dec.) | 0.245 | 1.81 |  |  |  |  |  |  |  | 
O=C(O)C[C@H](NC(=O)OCc1ccccc1)C(=O)N[C@H]1CCc2cccc3c2N(C1=O)[C@H](C(=O)N[C@H]1CC(=O)OC1O)C3 (stereo partly drawn) [Example 13] | 0.084 | 1.19 | 0.096 | 140 to 144 °C (dec.) | 0.00052 |  |  |  |  |  |  |  |  | 
O=C(CCc1ccccc1)N[C@H]1CCc2cccc3c2N(C1=O)[C@H](C(=O)N[C@H]1CC(=O)OC1O)C3 (stereo partly drawn) [Example 16] | 32.6 | 18.7 | 0.045 | 78 to 81 °C | 0.78 | > 10 |  |  |  |  |  |  |  | 
CC(=O)N[C@H]1CCc2cccc3c2N(C1=O)[C@H](C(=O)N[C@H]1CC(=O)OC1O)C3 (stereo partly drawn) [Example 19] | > 50 | > 50 | 3.07 | 210 to 215 °C (dec.) | 3.87 | > 10 |  |  |  |  |  |  |  | 
CC(C)(C)OC(=O)C[C@@H](/C=N/NC(N)=O)NC(=O)[C@@H]1Cc2cccc3c2N1C(=O)[C@@H](NC(=O)c1cccc2ccccc12)CC3 [Example 20] |  |  |  | 103 to 105 °C (dec.) |  |  |  |  |  |  |  |  |  | 
O=C1C[C@H](NC(=O)[C@@H]2Cc3cccc4c3N2C(=O)[C@@H](NC(=O)c2cccc3ccccc23)CC4)C(O)O1 (stereo partly drawn) [Example 22] | 12.3 | 1.09 | 0.01 | 202 to 203 °C (dec.) | 2.91 | > 50 |  |  |  |  |  |  |  | 
O=C1C[C@H](NC(=O)[C@@H]2Cc3cccc4c3N2C(=O)[C@@H](NC(=O)c2ccccc2)CC4)C(O)O1 (stereo partly drawn) [Example 25] | > 50 | 4.63 | 0.159 | 204 to 205 °C (dec.) | 8.77 | > 50 |  |  |  |  |  |  |  | 
O=C(O)CC(NC(=O)[C@@H]1Cc2cccc3c2N1C(=O)[C@@H](NC(=O)OCc1ccccc1)CC3)C(=O)CF (stereo partly drawn) [Example 31] |  |  |  |  |  |  | 98000 | 0.022 | 25000 | 0.033 | 960000 | 0.012 | 1.2e+07 | 0.0005
O=C(O)C[C@H](NC(=O)[C@@H]1Cc2cccc3c2N1C(=O)[C@@H](NC(=O)OCc1ccccc1)CC3)C(=O)COP(=O)(c1ccccc1)c1ccccc1 [Example 34, 3-[(2S-cis)-[5-Benzyloxycarbonylamino-1,2,3,4,5,6,7-hexahydro-4-oxoazapino[3,2,1-hi]indole-2-carbonyl]amino]5-(diphenylphosphinyl) oxy-4-oxo-pentanoic acid] |  |  |  | 109 to 111 °C (dec.) |  |  |  |  |  |  |  |  |  | 
